Holding throughout (assay type): cell-based
The test system of experiment [1] is MDA-MB-231 (Breast) cell line. Description: MTT cytotoxicity assay, MDA-MB-231. The following applies: Homo sapiens, growth inhibition by 50% after 48 hr treatment. The text has this: (§1) The newly synthesized compounds, 3a–d and 6a–c, combined the benefits of the aforementioned 1,3,4-oxadiazol-2(3H)-one and tetrahydropyridazine-3,6-dione moieties with their fatty acid substituent to give a new scaffold. To check the anticancer potency, the compounds 3a–d and 6a–c were screened in vitro for cytotoxicity against MDA-MB-231 (Breast), KCL-22 (Lymphoblastoid), and HeLa (cervical) cell lines, while PBMC (peripheral blood mononuclear cells) were used as a normal cell. Doxorubicin and 5-Fluorouracil were used as standard cytotoxic drugs. A period of 48 hours of drug exposure was chosen to test cytotoxicity. The MTT cell viability assay based on the conversion of the soluble yellowish MTT to the insoluble purple formazan crystal by active mitochondrial […] of living cells was used for the measurement of cell proliferation. The inhibitory concentration (IC50) of 3a–d and 6a–c compounds were screened against the MDA-MB-231, KCL-22, and HeLa cell lines as given in Table 1. The effect of standard drugs (Doxorubicin and 5-Fluorouracil) on the MDA-MB-231, KCL-22, and HeLa cell lines, and PBMC are represented in Fig. 4.
(§2) The MDA-MB-231, KCL-22, and HeLa cell lines were maintained in RPMI 1640 (Sigma Aldrich, USA) culture medium supplemented with 10% heat-inactivated fetal calf serum (Sigma Aldrich, USA), and antibiotic antimycotic solution (Sigma Aldrich, USA).
(§3) The cells were plated at a density of (5×10^4 / well) in 96-well plates and cultured for 24 hours at 37°C. The cytotoxicity of compounds was determined by the MTT assay which involves the percentage viability of a cell in response to variable doses of compounds. After incubation for 48 hours, cell proliferation was measured by adding 20 μL of MTT dye (5 mg/mL in phosphate-buffered saline) per well. The plates were incubated for 4 hours more at 37°C in a humidified chamber containing 5% CO2. Active mitochondrial dehydrogenases of living cells reduced the yellow tetrazolium salt (dye) to an insoluble purple formazan crystal. Formazan crystals formed due to the reduction of tetrazoline dye by viable cells in each well which were dissolved in 150 μL dimethyl sulfoxide, and absorbance was read at 570 nm using a plate reader (Bio-Rad). The percentage of inhibition of cell viability was determined with reference to the untreated control. To determine the IC50 value, a linear regression analysis method was used.
On the technique in general: Tetrazolium assays rely on reduction of a dye to a coloured formazan, in cell work by metabolically active cells.

Experiment [2] deals with KCL-22 (Lymphoblastoid) cell line. Description: MTT cytotoxicity assay, KCL-22. Particulars: Homo sapiens, growth inhibition by 50% after 48 hr treatment.
From the text: as §1, §2, §3

The test system of experiment [3] is HeLa (cervical) cell line. Description: MTT cytotoxicity assay, HeLa. Particulars: Homo sapiens, growth inhibition by 50% after 48 hr treatment.
From the text: as §1, §2, §3

For experiment [4], the system named is PBMC (peripheral blood mononuclear cells). In words: MTT cytotoxicity assay, normal cells PBMC. Particulars: 48 hr treatment.
From the text: as §1
Fresh blood ([…]) was provided by the Blood Bank JNMC AMU, Aligarh. After dilution with the same volume of PBS, the diluted blood sample was layered on the Ficoll-Histopaque (Sigma Aldrich, USA). The mixture was centrifuged at 400×g for 30 min at 20–22°C followed by separation of the lymphocyte layer. Then the lymphocyte layer was washed and pelleted down with three volumes of PBS twice and resuspended with RPMI-1640 media with antibiotic and antimycotic solution 10%, v/v fetal calf serum (FCS).
as §3

The record followed here is paper PMC4727767, “Synthesis and In Vitro Biological Evaluation of 1,3,4-Oxadiazol-2(3H)-one and Tetrahydropyridazine-3,6-dione Derivatives of Fatty Acids” (Scientia Pharmaceutica, 2015).

As usually defined, the IC50 is the concentration at which inhibition is half-maximal. A high value points to weaker potency.

Some results are limits rather than exact numbers.

As to `CCCCCCCCCCCCCCCCCc1n[nH]c(=O)o1` [3d, 5-Heptadecyl-1,3,4-oxadiazol-2(3H)-one], the IC50 in experiment [1] amounted to 15.4 ± 1.8 µM; in experiment [2], 11.8 ± 1.6 µM; in experiment [3], 26.2 ± 1.5 µM; in experiment [4], 41.4 ± 1.4 µM.

Take `COc1cccc2c1C(=O)c1c(O)c3c(c(O)c1C2=O)C[C@@](O)(C(=O)CO)C[C@@H]3O[C@H]1C[C@H](N)[C@H](O)[C@H](C)O1` [Doxorubicin, reference compound]: the IC50 in experiment [1] is 1.6 ± 0.09 µM; in experiment [2] it was 1.1 ± 0.08 µM; in experiment [3], 1.9 ± 0.09 µM; in experiment [4] it was 9.39 ± 1.9 µM.

With `CCCCCCCC/C=C\CCCCCCCc1n[nH]c(=O)o1` [3b, 5-[(8Z)-Heptadec-8-en-1-yl]-1,3,4-oxadiazol-2(3H)-one], the IC50 was 9.3 ± 1.3 µM in experiment [1], 13.6 ± 1.3 µM in experiment [2], 12.3 ± 2.4 µM in experiment [3] and > 50 µM in experiment [4].

Turning to `CCCCCCCC/C=C\CCCCCCCC(=O)N1NC(=O)CCC1=O` [6b, 1-[(9Z)-Octadec-9-enoyl]tetrahydropyridazine-3,6-dione], the IC50 in experiment [1] turned out to be 11.1 ± 1.8 µM; in experiment [2] it was 8.1 ± 1.4 µM; in experiment [3], 13.4 ± 2.4 µM; in experiment [4], 43.2 ± 1.5 µM.

For the compound `CCCCCC[C@@H](O)C/C=C\CCCCCCCc1n[nH]c(=O)o1` [3c, 5-[(8Z,11R)-11-Hydroxyheptadec-8-en-1-yl]-1,3,4-oxadiazol-2(3H)-one], the IC50 in experiment [1] amounted to 6.3 ± 1.1 µM; in experiment [2], 8.3 ± 1.2 µM; in experiment [3], 9.6 ± 1.2 µM; in experiment [4] it was 46.3 ± 1.3 µM.

For `C=CCCCCCCCCC(=O)N1NC(=O)CCC1=O` [6a, 1-(Undec-10-enoyl)tetrahydropyridazine-3,6-dione], the IC50 came to 18.9 ± 2.2 µM in experiment [1], 16.4 ± 2.1 µM in experiment [2], 19.3 ± 1.4 µM in experiment [3] and 44.8 ± 1.3 µM in experiment [4].

In the case of `C=CCCCCCCCCc1n[nH]c(=O)o1` [3a, 5-(Dec-9-en-1-yl)-1,3,4-oxadiazol-2(3H)-one], the IC50 is 12.3 ± 1.6 µM in experiment [1], 15.5 ± 1.8 µM in experiment [2], 17.1 ± 2.1 µM in experiment [3] and 39.7 ± 1.4 µM in experiment [4].

Turning to `O=c1[nH]cc(F)c(=O)[nH]1` [5-Fluorouracil, reference compound], the half-inhibitory concentration (IC50) in experiment [1] came out at 2.42 ± 0.09 µM; in experiment [2], 2.52 ± 1 µM; in experiment [3], 2.18 ± 0.8 µM; in experiment [4], 11.1 ± 2.3 µM.

With `CCCCCCCCCCCCCCCC(=O)N1NC(=O)CCC1=O` [6c, 1-Hexadecanoyltetrahydropyridazine-3,6-dione], the half-maximal inhibitory concentration (IC50) in experiment [1] was 25.7 ± 1.4 µM; in experiment [2] it was 17.6 ± 2.2 µM; in experiment [3], 21.2 ± 1.6 µM; in experiment [4], 43.6 ± 1.4 µM.
